Here are results for ten molecules from ChEMBL document CHEMBL1152235, “(3R)-3-amino-4-(2,4,5-trifluorophenyl)-N-{4-[6-(2-methoxyethoxy)benzothiazol-2-yl]tetrahydropyran-4-yl}butanamide as a potent dipeptidyl peptidase IV inhibitor for the treatment of type 2 diabetes” (Bioorg Med Chem Lett, 2008).

The source made the active and inactive calls. The rule behind the calls is not given here.

For data set [1] the following is noted: mouse, microsomes.
Description: Metabolic stability in mouse microsomes assessed as intrinsic clearance
The conditions of data set [2]: human, microsomes.
For data set [3] the following is noted: rat, microsomes.
Another data set deals with Mus musculus. Nature of the data set: Reduction in blood glucose excursion in ICR mouse at 30 mg/kg, po administered 30 mins prior to glucose challenge by glucose tolerance test. The class given is functional, organism-based. Set-up: dose 30 mg/kg.
Another data set concerns Rattus norvegicus. The data set can be described thus: Inhibition of DPP4 in po dosed Sprague-Dawley rat plasma. The class given is functional.

With `COCCOc1ccc2nc(C3(NC(=O)C[C@H](N)Cc4cc(Cl)ccc4F)CCOCC3)sc2c1`, the CL is 28.6 µL/min/mg in data set [1], 34.2 µL/min/mg in data set [2] and 98.1 µL/min/mg in data set [3].
`COCCOc1ccc2nc(C3(NC(=O)C[C@H](N)Cc4cc(F)c(F)cc4F)CCS(=O)(=O)CC3)sc2c1`: the figures for the CL in data set [1], in data set [2] and in data set [3] were 34.1 µL/min/mg, 46.6 µL/min/mg and 21.9 µL/min/mg, respectively.
`N[C@@H](CC(=O)NC1(c2nc3ccccc3s2)CCS(=O)(=O)CC1)Cc1cc(F)c(F)cc1F`: the CL in data set [2] was 39.9 µL/min/mg; in data set [3], 64.4 µL/min/mg.
`COCCOc1ccc2nc(C3(NC(=O)C[C@H](N)Cc4cc(F)c(F)cc4F)CCOCC3)sc2c1`: the CL in data set [1] is 22.1 µL/min/mg; in data set [2] it was 21.9 µL/min/mg; in data set [3] it was 49.6 µL/min/mg. For the same molecule, the outcome in the data set on Mus musculus was Active. In addition, the Activity result in the data set on Rattus norvegicus was “Dose-dependent effect”. In addition, the ED50 in the data set on Rattus norvegicus (read-out: ID50 (the source's name)) was found to be 2.7 mg/kg.
As for `C[C@]12CC[C@H]3[C@@H](CCC4=CC(=O)CC[C@@]43C)[C@@H]1CC[C@@H]2O` [TESTOSTERONE], the CL in data set [1] was determined as 312.6 µL/min/mg; in data set [2], 109.3 µL/min/mg; in data set [3], 375.6 µL/min/mg.
For `N[C@@H](CC(=O)NC1(c2nc3ccccc3s2)CCS(=O)(=O)CC1)Cc1ccccc1F`, the CL in data set [2] came out at 34.6 µL/min/mg; in data set [3], 73.4 µL/min/mg.
Consider `COc1ccc2nc(C3(NC(=O)C[C@H](N)Cc4ccccc4F)CCS(=O)(=O)CC3)sc2c1`, for which the CL in data set [2] was determined as 26.2 µL/min/mg; in data set [3], 51.5 µL/min/mg.
As for `COc1ccc2nc(C3(NC(=O)C[C@H](N)Cc4cc(F)c(F)cc4F)CCS(=O)(=O)CC3)sc2c1`, the CL in data set [2] stood at 32.3 µL/min/mg; in data set [3] it was 42.3 µL/min/mg.
Regarding `N[C@@H](CC(=O)NC1(c2nc3ccc(OCCN4CCOCC4)cc3s2)CCS(=O)(=O)CC1)Cc1cc(F)c(F)cc1F`, the CL in data set [1] was 34.5 µL/min/mg; in data set [2], 92.8 µL/min/mg; in data set [3] it was 26 µL/min/mg.
`COCCOc1ccc2nc(C3(NC(=O)C[C@H](N)Cc4cc(Cl)ccc4F)CCS(=O)(=O)CC3)sc2c1`: the CL in data set [1] was found to be 33 µL/min/mg; in data set [2] it was 63.8 µL/min/mg; in data set [3], 31.5 µL/min/mg.
